Measured values published in patent publication US12390441B2, “Immunomodulating o-het/aryl azalides” (Zoetis Services LLC, priority 2020, dated 2025).

Columns and labels:
Experiment in all cases: In-vitro MIC model (CLSI broth micro-dilution)
M. haemolytica = assay type: cell-based, Mannheimia haemolytica; settings: screening panel strains
H. somni (A700025K) = assay type: cell-based, Histophilus somni
P. multocida = assay type: cell-based, Pasteurella multocida; settings: screening panel strains

SMILES: CCCN1C[C@H](C)[C@@H](O)[C@](C)(O)[C@@H](CC)OC(=O)[C@H](C)[C@@H](O[C@H]2C[C@@](C)(OC)[C@@H](O)[C@H](C)O2)[C@H](C)[C@@H](O[C@@H]2O[C@H](C)C[C@H](N(C)C)[C@H]2O)[C@](C)(O)C[C@H]1C [gamithromycin, reference compound]
- MIC, M. haemolytica strains (M. haemolytica): 0.5 to 1 µg/mL
- MIC, H. somni strains (H. somni (A700025K)): 0.25 to 8 µg/mL
- MIC, P. multocida strains (P. multocida): 1 to 2 µg/mL
